The term GI50 denotes the concentration that inhibits growth by half.

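Protocol summary: plate cells (96-well), add compound at 5 concentrations, incubate 48 h, interpolate endpoints linearly. At the GI50, growth is halved.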 The source made the active and inactive calls. No stated cut-off is given here; in the data, active = GI50 up to about 1.1 µM and inactive = higher.

The record followed here is ChEMBL document CHEMBL1201862, “PubChem BioAssay data set” (2004).

Holding throughout (assay): DTP human tumour cell line panel, 48 h
Experiment [1] has as its system A498.
The test system of experiment [2] is DU-145.
The test system of experiment [3] is HCT-15.
Experiment [4] concerns K562.
The test system of experiment [5] is M14.
Experiment [6] concerns MDA-MB-231.
Experiment [7] concerns NCI-H226.
The subject of experiment [8] is NCI-H23.
For experiment [9], the system named is OVCAR-4.
The test system of experiment [10] is RXF 393.
Experiment [11] deals with SF-268.
For experiment [12], the system named is SK-MEL-28.
Experiment [13] deals with SK-MEL-2.
Experiment [14] deals with SNB-19.
Experiment [15] concerns SW-620.
In experiment [16] the test system is UACC-257.
For experiment [17], the system named is UACC-62.
Experiment [18] concerns CCRF-CEM.
Experiment [19] has as its system HOP-92.
Experiment [20] relates to NCI-H460.

For the molecule `COc1ccc(CCNC(=O)c2ccccc2C2c3ccc(OCc4ccccc4)cc3Oc3cc(OCc4ccccc4)ccc32)cc1OC`, the GI50 is > 100 µM (inactive) in [1]; > 100 µM (inactive) in experiment [2]; > 100 µM in [3]; > 100 µM (inactive) in experiment [4]; > 100 µM (inactive) in experiment [5]; > 100 µM (inactive) in experiment [6]. The GI50 in [7], in experiment [8], in experiment [9], in experiment [10], in [11] and in experiment [12] was > 100 µM (inactive) in each case. Moreover, the GI50 in [13] is > 100 µM (inactive); in [14], > 100 µM (inactive); in [15], > 100 µM (inactive); in experiment [16], 94.6 µM (inactive); in experiment [17] it was > 100 µM (inactive).
Turning to `CC(=O)OCc1ccc2c(c1)C(O)NC(=O)O2` (centres undefined), the GI50 in experiment [18] was 12.4 µM (inactive); in experiment [2], > 100 µM (inactive); in experiment [3] it was 44.3 µM; in experiment [19], > 100 µM (inactive); in [4] it was 31 µM (inactive); in [5], > 100 µM (inactive). Further, the GI50 in [6] was > 100 µM (inactive); in experiment [7], 96.6 µM (inactive); in [8] it was > 100 µM (inactive); in experiment [20], > 100 µM (inactive); in experiment [9], 93.1 µM (inactive); in experiment [10] it was > 100 µM (inactive). For the same molecule, the GI50 is > 100 µM (inactive) in [11]; > 100 µM (inactive) in experiment [12]; > 100 µM (inactive) in experiment [13]; > 100 µM (inactive) in experiment [14]; 72.8 µM (inactive) in experiment [15]; > 100 µM (inactive) in [16]. The GI50 in experiment [17] was > 100 µM (inactive).
On to `Cc1ccc(S(=O)(=O)NC2C(=O)c3ccccc3C(=O)C2n2cnc3ccccc32)cc1` (centres undefined), for which the GI50 in experiment [18] is 53.1 µM (inactive); in experiment [2] it was 57.9 µM (inactive); in experiment [3], 25.6 µM; in [19], 14.4 µM (inactive); in experiment [4], 90.6 µM (inactive); in experiment [5] it was 25.3 µM (inactive). The GI50 is 17.9 µM (inactive) in experiment [6]; 42.8 µM (inactive) in experiment [7]; 23.9 µM (inactive) in experiment [8]; 19.5 µM (inactive) in experiment [20]; 2.19 µM (inactive) in [9]; 24.9 µM (inactive) in experiment [10]. Besides, the GI50 in experiment [11] was 40 µM (inactive); in experiment [12] it was 29.3 µM (inactive); in experiment [13], 14.7 µM (inactive); in experiment [14], 27.4 µM (inactive); in [15] it was 25.3 µM (inactive); in experiment [16], 28.9 µM (inactive). In addition, the GI50 in [17] was 28.3 µM (inactive).
Turning to `N/N=C(\N)SCCCCCCCCCCS/C(N)=N/N`, the GI50 was 15.1 µM (inactive) in [1]; 17.2 µM (inactive) in experiment [18]; 20.9 µM (inactive) in [2]; 14.3 µM in experiment [3]; 15.1 µM (inactive) in experiment [4]; 29.4 µM (inactive) in experiment [5]. Also, the GI50 was 20.4 µM (inactive) in experiment [6]; 27 µM (inactive) in experiment [7]; 25.8 µM (inactive) in experiment [8]; 15.9 µM (inactive) in [20]; 30.3 µM (inactive) in [11]; 37.8 µM (inactive) in [12]. For the same molecule, the GI50 in experiment [13] is 16.7 µM (inactive); in experiment [14], 40.7 µM (inactive); in experiment [15], 17.7 µM (inactive); in [16], 30.1 µM (inactive); in experiment [17], 21.5 µM (inactive).
Consider `Cc1cccc(/N=N/C(=O)NNc2cccc(C)c2C)c1C`, for which the GI50 is 34 µM (inactive) in experiment [1]; > 10 µM (inactive) in experiment [18]; 37 µM (inactive) in experiment [2]; 38.5 µM in [3]; 33.7 µM (inactive) in experiment [4]; 41.8 µM (inactive) in experiment [5]. In addition, the GI50 is 47.5 µM (inactive) in [6]; 38.8 µM (inactive) in [7]; 32.7 µM (inactive) in experiment [8]; 38.5 µM (inactive) in experiment [20]; 30.8 µM (inactive) in [9]; 34 µM (inactive) in [11]. The GI50 was 43.6 µM (inactive) in experiment [12]; 21.9 µM (inactive) in experiment [13]; 45.8 µM (inactive) in experiment [14]; 34 µM (inactive) in [15]; 34.7 µM (inactive) in experiment [16]; 29.5 µM (inactive) in experiment [17].
Consider `Cc1ccc(CC2(OCCN(C)C)CCC(C(C)(C)C)CC2)cc1` (centres undefined), for which the GI50 in [1] is 11.4 µM (inactive); in experiment [18] it was 2.65 µM (inactive); in [2], 5.47 µM (inactive); in experiment [3] it was 4.63 µM; in experiment [4], 1.87 µM (inactive); in experiment [5] it was 1.87 µM (inactive). The GI50 is 5.56 µM (inactive) in experiment [6]; 5.28 µM (inactive) in experiment [7]; 11.4 µM (inactive) in [8]; 1.79 µM (inactive) in [20]; 5.13 µM (inactive) in experiment [9]; 9.33 µM (inactive) in [11]. Besides, the GI50 in [12] was 1.91 µM (inactive); in [13] it was 2.11 µM (inactive); in [14], 5.28 µM (inactive); in [15], 2.45 µM (inactive); in experiment [16] it was 2.09 µM (inactive); in experiment [17], 3.31 µM (inactive).
Take `CN(C(=S)Cc1ccc(Cl)c(Cl)c1)C1CCCC[C@@H]1N1CCCC1` (some centres undefined): the GI50 is 13 µM (inactive) in [1]; > 100 µM (inactive) in [2]; 58.1 µM in [3]; 61 µM (inactive) in [4]; 18.2 µM (inactive) in experiment [5]; 34.4 µM (inactive) in experiment [6]. Besides, the GI50 in experiment [7] is 46.6 µM (inactive); in [8] it was 44.2 µM (inactive); in [9] it was 84.9 µM (inactive); in experiment [12], 16.7 µM (inactive); in [13], 31.6 µM (inactive); in experiment [14], > 100 µM (inactive). Moreover, the GI50 in [15] is 20.1 µM (inactive); in experiment [17] it was 17.5 µM (inactive).
`Nc1nc2c(c(=O)[nH]1)C(c1ccccc1)CC(=O)N2` (centres undefined): the GI50 was > 100 µM (inactive) in experiment [1]; > 100 µM (inactive) in experiment [2]; > 100 µM in experiment [3]; > 100 µM (inactive) in experiment [4]; > 100 µM (inactive) in experiment [5]; > 100 µM (inactive) in experiment [6]. Besides, the GI50 in experiment [7], in experiment [8], in experiment [20], in [9], in [11] and in [12] was > 100 µM (inactive) throughout. In addition, the GI50 in [13], in experiment [14], in experiment [15], in [16] and in experiment [17] was > 100 µM (inactive) each time.
